In data set [1] the test system is HIV-1NL4-3. The data set is described as follows: HIV-1 challenge of CD4+ T cell cultures with <25% transduced cells. In kind it is cell-based. An excerpt: These conditions would be more realistic of hT5Cyp therapy in patients. […] The survival advantage of CD4^+ T cell becomes apparent when analyzing the viability of the cells by forward versus side-scatter and gating on live lymphocytes; a method that had to be adopted since the cells were fixed in paraformaldehyde for flow cytometry analysis.

For data set [2], the system named is HIV-1. An excerpt:
CD4^+ T cells were enriched from PBMCs using MACS, and activated using irradiated allo-PBMC and IL-2. […] Cells were sorted based on GFP-expression and then challenged with replication-competent, CXCR4-tropic, HIV-1NL4-3. […] Cells were infected with HIV-1NL4-3, modified to be CCR5-tropic.
293T human embryonic kidney cells and CRFK feline kidney cells were maintained in DMEM supplemented with 10% fetal bovine serum (FBS) and glutamax (Invitrogen). […] CD4^+ T cells were enriched from PBMCs (>99% CD4^+) using positive selection magnetic beads (Miltenyi Biotec) and stimulated for 24 hrs on multisorb 96-well plates (Nunc) coated with 2 μg/ml anti-CD3 and 2 μg/ml anti-CD28 antibodies (BD Biosciences) in RPMI with 10% FBS, glutamax (Invitrogen) and 20 IU/ml hIL-2. When indicated and in preparation for adoptive transfer to mice, CD4^+ T cells were stimulated using allogeneic-PBMCs irradiated at 50 Gy in the presence of 20 IU/ml IL-2 and phytohemagglutinin (PHA) at 1 μg/ml. Cells were washed and replated 24 hrs prior to viral transduction. […]
2×10^4 adherent cells/well or 8×10^4 suspension cells/well were plated in 48-well plates (Nunc) for challenge with single-cycle GFP reporter vectors that were titered as indicated. GFP synthesis was assessed by flow cytometry 48 hrs post-infection. […] For infection of 10^6 primary CD4^+ T cells or macrophages, 15 ng p24/10^6 cells of a CXCR4- or CCR5-tropic HIV-1NL4-3 stock was used, and infection was monitored by assessing the accumulation of RT activity in the supernatant (Sayah et al., 2004). FACSCalibur, Cellquest Pro (Becton Dickinson), and FlowJo software (Treestar, Inc.) were used to record and analyze fluorescence. […]
CD4^+ T cells and monocyte-derived macrophages were infected with low passage derivatives of primary isolates HIV-1DH12 and HIV-1132W, respectively. […] Infection was monitored by assessing the accumulation of RT activity in the supernatant at the indicated day post-infection, at which point CD4^+ cells were split and macrophages were fed as required.

The subject of data set [3] is primary human CD4+ T cells. As to the kind of experiment: Proliferation, IL-2 production and surface markers of transduced primary CD4+ T cells. In kind it is cell-based. An excerpt: The functions of endogenous CypA and T5 in hCD4^+ T cells remain largely uncharacterized. […] This complex inhibits T cell function by binding to the serine/threonine phosphatase calcineurin and blocking downstream signaling events (Handschumacher et al., 1984; Liu et al., 1991). Functionally, CypA is a peptidyl-prolyl isomerase (PPiase) which catalyses the rate-limiting cis-trans interconversion of peptide bonds N-terminal to proline, an enzymatic activity not required for immunosuppression via CsA (Fischer et al., 1984; Liu et al., 1991; Schmid, 1995). The peptidyl-prolyl isomerases are represented by three structurally distinct families: cyclophilins, FKBPs, and parvulins. Given their astounding evolutionary persistence, from some archeabacteria to all mammals, cyclophilins are not well understood (Colgan et al., 2000; Gothel and Marahiel, 1999).
Activated, scAPLS-transduced primary human CD4^+ T cells were maintained in culture for 6 days. 1×10^5 cells were transferred in triplicate into 96-well flat-bottom microplates (Falcon) and labeled for 18 h with […] of ^[3H]thymidine (GE-Amersham). The DNA-incorporated radioactivity was measured by liquid scintillation counting. Data were expressed as mean corrected counts per minute (ccpm) of […] cultures.
IL-2 producing capacity of hT5Cyp-expressing primary human T cells was assessed after stimulation for 6 h with 100 nM PMA and 1 μg/ml Ionomycin (Sigma-Aldrich). Brefeldin A (Sigma-Aldrich) was added at 10 μg/ml during the last 4 h of stimulation.
The following antibodies were used for cell surface stains of primary CD4^+ T cells: α-CD4 (RPA-T4), α-CXCR4 (12G5), and α-MHC I (HLA A, B, C) (G46-2.6) (all from BD-Pharmingen).

Like-named read-outs stand apart in the source and are kept apart here.

“hT5Cyp: human TRIM5α fused at serine 322 to human cyclophilin A, SEQ ID NO:12”: the “RT activity in the culture supernatant” value in data set [1] (mixed culture) was “significantly lower”. Further, the “day of peak viral replication” value in data set [1] (mixed culture) is 28 days. In addition, the “transduced cells in the culture after HIV-1 infection” value in data set [1] (start <25% transduced) stood at 75%. Moreover, the establishment of infection result in data set [2] (CCR5-tropic HIV-1NL4-3) was “infection is not established”; in data set [2] (CXCR4-tropic HIV-1NL4-3), “infection was not established”. In addition, the block to infection entry in data set [2] (primary isolate HIV-1DH12) was “The same hT5Cyp-mediated block to infection”. In data set [3] (PMA and ionomycin), the IL-2 production entry is on record as “produced comparable amounts of IL-2”. Also, in data set [3] (thymidine incorporation vs untransduced), the proliferation result is listed as “proliferated at the same rate as untransduced cells”. Moreover, the cell-surface marker expression result in data set [3] (vs untransduced) is “expressed the same level of cell-surface CD4, CXCR4, and MHC I”.

The values are drawn from US8835617B2, “Polynucleotides encoding a human TRIM-Cyp fusion polypeptide, compositions thereof, and methods of using same” (priority 2008, dated 2014).
